Literature values, collected in US7183392B2, “Site-specific, covalent bioconjugation of proteins” (Zyomyx, Inc., priority 2000, dated 2007).

How the values were obtained:
[1] = molecular target: Helix A / Helix B parallel heterodimer; details: parallel heterodimer of Helix A with Helix B; read-out: dissociation constant
[2] = aqueous and polar environments
RNA aptamer = details: 11 amino acid sequence, known RNA aptamer

Substance	Kd [1] [nM]	solubility [2]	Kd (RNA aptamer) [nM]
EYQALEKEVAQLEAENNALEKEVAQLEHEG [Helix A]	~6	very soluble	–
EYQALKKKVAQLKAKNNALKKKVAQLKHKG [Helix B]	~6	very soluble	–
substance P: 11 amino acid long peptide sequence that binds a known RNA aptamer	–	–	~190
